{"source": "patent US9346803B2", "about": "(Vanderbilt University, priority 2011, dated 2016)", "key": {"[1]": {"biological_target": "homogeneous recombinant AKR1C3 (Homo sapiens (Human), UniProt P42330)", "sequence (P42330 whole entry)": "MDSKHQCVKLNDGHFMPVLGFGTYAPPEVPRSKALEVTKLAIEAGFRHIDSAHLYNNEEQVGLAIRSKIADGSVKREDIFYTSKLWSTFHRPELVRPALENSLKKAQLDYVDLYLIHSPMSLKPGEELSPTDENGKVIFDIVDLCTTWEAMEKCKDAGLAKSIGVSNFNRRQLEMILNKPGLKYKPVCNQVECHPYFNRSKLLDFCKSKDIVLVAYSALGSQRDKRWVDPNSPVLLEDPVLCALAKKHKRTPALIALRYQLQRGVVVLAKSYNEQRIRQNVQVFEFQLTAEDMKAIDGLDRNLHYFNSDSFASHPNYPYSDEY", "test": "Inhibition of NADP+ dependent oxidation of S-tetralol catalyzed by AKR1C3", "assay_type": "biochemical", "settings": "S-tetralol substrate at Km"}, "[2]": {"biological_target": "AKR1C4 (Homo sapiens (Human), UniProt P17516)", "sequence (P17516 whole entry)": "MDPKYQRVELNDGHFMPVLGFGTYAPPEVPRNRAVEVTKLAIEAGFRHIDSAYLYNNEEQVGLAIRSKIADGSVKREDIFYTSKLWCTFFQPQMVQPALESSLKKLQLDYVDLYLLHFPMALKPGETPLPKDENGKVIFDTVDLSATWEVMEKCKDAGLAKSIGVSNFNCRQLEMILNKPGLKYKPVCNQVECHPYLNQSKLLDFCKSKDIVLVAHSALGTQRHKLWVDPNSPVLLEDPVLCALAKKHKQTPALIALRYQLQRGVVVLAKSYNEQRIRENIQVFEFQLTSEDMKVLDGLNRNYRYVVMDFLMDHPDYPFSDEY", "test": "Inhibition of S-tetralol oxidation, AKR1C4", "assay_type": "biochemical"}, "[3]": {"biological_target": "AKR1C1 (Homo sapiens (Human), UniProt Q04828)", "sequence (Q04828 whole entry)": "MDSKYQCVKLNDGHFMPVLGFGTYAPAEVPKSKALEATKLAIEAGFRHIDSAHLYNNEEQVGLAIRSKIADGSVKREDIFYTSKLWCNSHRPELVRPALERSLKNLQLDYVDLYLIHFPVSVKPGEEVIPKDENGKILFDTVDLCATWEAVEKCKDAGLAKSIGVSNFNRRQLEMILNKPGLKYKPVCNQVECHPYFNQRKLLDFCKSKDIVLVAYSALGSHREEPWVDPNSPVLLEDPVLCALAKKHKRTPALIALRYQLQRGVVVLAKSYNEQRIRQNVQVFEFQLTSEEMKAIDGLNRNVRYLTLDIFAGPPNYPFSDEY", "test": "Inhibition of S-tetralol oxidation, AKR1C1", "assay_type": "biochemical", "settings": "for IC50: S-tetralol substrate at Km", "text": "Inhibitors were initially screened for an ability to block the NADP+ dependent oxidation of the artificial substrate S-tetralol catalyzed by AKR1C3. S-tetralol was used since it is also a substrate of the highly related AKR1C1 and AKR1C2 enzymes.\nInitially, the ratios of IC50 values for AKR1C2 versus AKR1C3 were compared. High ratios were indicative of high selectivity for AKR1C3.\nThe latter assay is used to determine whether lead compounds act as AR agonists or block 5α-DHT reporter gene activity by acting as androgen receptor antagonists."}, "[4]": {"biological_target": "AKR1C2 (Homo sapiens (Human), UniProt P52895)", "sequence (P52895 whole entry)": "as the sequence (Q04828 whole entry) above, with T38V, R47H, L54V, C87S, V151M, R170H, Q172L counted along it", "test": "Inhibition of S-tetralol oxidation, AKR1C2", "assay_type": "biochemical", "settings": "for IC50: S-tetralol substrate at Km"}, "[5]": {"test_system": "VCaP cells in a murine xenograft model", "settings": "Cai et al., 2011; cited from earlier work"}, "[6]": {"test_system": "VCaP cells", "test": "Δ4-androstene-3,17-dione driven expression of PSA in VCaP cells", "assay_type": "cell-based, human"}, "[7]": {"test_system": "COX-1", "test": "Screen against COX-1", "assay_type": "biochemical", "settings": "at concentrations greater than 100 μM"}, "[8]": {"test_system": "LNCaP cells stably transfected with AKR1C3", "test": "Conversion of Δ4-androstene-3,17-dione to testosterone in LNCaP-AKR1C3 transfected cells", "assay_type": "cell-based, human", "settings": "30 μM", "text": "Tertiary screens involve one or more of (d) expanded reporter gene assays to determine whether compounds act as agonists or antagonists of other steroid hormone receptors; (e) inhibition of the conversion of Δ^4-androstene-3,17-dione to testosterone in androgen receptor dependent prostate cancer cells (including, but not limited to LNCaP; available from the American type Culture Collection (ATCC), Manassas, Va., United States of America) stably transfected with AKR1C3; and (f) inhibition of growth of castrate-resistant prostate cancer cells in a murine xenograft model."}, "[9]": {"test_system": "androgen receptor (AR)", "test": "HeLa-cell androgen receptor (AR) luciferase reporter gene assay driven by DHT", "assay_type": "cell-based", "settings": "for AR agonism or antagonism (DHT stimulation of the AR): AR luciferase reporter gene assay; for androgen receptor antagonism: luciferase AR reporter gene assay driven by DHT, FIG. 11", "text": "Secondary screens involve one or more of: (a) a full-screen against all nine human recombinant AKR enzymes to ensure there are no-intended off-target effects; (b) a screen against COX-1 and COX-2 to reaffirm that compounds will not act as NSAIDs; and (c) a HeLa-cell androgen receptor (AR) reporter gene assay. The latter assay is used to determine whether lead compounds act as AR agonists or block 5α-DHT reporter gene activity by acting as androgen receptor antagonists."}}, "note": "“Also recorded” adds a separate entry of the source.", "data": [{"smiles": "COc1ccc2c(c1)c(CC(=O)O)c(C)n2C(=O)c1ccc(C)cc1", "values": [{"measurement": "IC50", "setting": "[1]", "result": 0.16, "unit": "µM"}]}, {"smiles": "COc1ccc2c(c1)c1c(n2C(=O)c2ccc(Cl)cc2)CCC(C(=O)O)C1", "note": "(stereo not shown)", "values": [{"measurement": "IC50", "setting": "[2]; S-tetralol substrate at Km", "result": 3.15, "unit": "µM"}]}, {"smiles": "CCc1c(CCC(=O)O)n(C(=O)c2ccc(Cl)cc2)c2ccc(OC)cc12", "values": [{"measurement": "IC50", "setting": "[1]", "result": 0.09, "unit": "µM"}, {"measurement": "IC50", "setting": "[3]", "result": 30.7, "unit": "µM"}, {"measurement": "IC50", "setting": "[4]", "result": 49.6, "unit": "µM"}]}, {"smiles": "COc1ccc2c(c1)c(CC(=O)O)c(C)n2C(=O)c1ccc(Cl)cc1", "note": "[indomethacin]", "values": [{"measurement": "AR dependent gene transcription and tumor growth in xenograft", "setting": "[5]", "result": "block AR dependent gene transcription and cell growth and proliferation of the tumor"}, {"measurement": "Δ4-androstene-3,17-dione driven expression of PSA", "setting": "[6]", "result": "blocked; also recorded: inhibition"}]}, {"smiles": "COc1ccc2c(c1)c(C)c(CCC(=O)O)n2C(=O)c1ccc(Cl)cc1", "note": "[drawing 37]", "values": [{"measurement": "IC50", "setting": "[3]", "result": 17.7, "unit": "µM"}, {"measurement": "IC50", "setting": "[4]", "result": 14.5, "unit": "µM"}]}, {"smiles": "COc1ccc2c(c1)c(C)c(CCC(=O)NS(C)(=O)=O)n2C(=O)c1ccc(Cl)cc1", "note": "[Compound 3]", "values": [{"measurement": "COX-1 inhibition", "setting": "[7]", "result": "did not inhibit COX-1"}, {"measurement": "conversion of Δ4-androstene-3,17-dione to testosterone", "setting": "[8]", "result": "completely blocked"}, {"measurement": "AR agonism or antagonism (DHT stimulation of the AR)", "setting": "[9]", "result": "did not act as AR agonists or antagonists"}, {"measurement": "androgen receptor antagonism", "setting": "[9]", "result": "lack of androgen receptor antagonism"}]}, {"smiles": "COc1ccc2c(c1)c(C)c(CCC(=O)O)n2C(=O)c1ccc(Cl)cc1", "note": "[Compound 2]", "values": [{"measurement": "COX-1 inhibition", "setting": "[7]", "result": "did not inhibit COX-1"}, {"measurement": "conversion of Δ4-androstene-3,17-dione to testosterone", "setting": "[8]", "result": "completely blocked"}, {"measurement": "AR agonism or antagonism (DHT stimulation of the AR)", "setting": "[9]", "result": "did not act as AR agonists or antagonists"}, {"measurement": "androgen receptor antagonism", "setting": "[9]", "result": "lack of androgen receptor antagonism"}]}, {"smiles": "COc1ccc2c(c1)c(CC(=O)NS(=O)(=O)C(F)(F)F)cn2C(=O)c1ccc(Cl)cc1", "note": "[Compound 1]", "values": [{"measurement": "AR agonism or antagonism (DHT stimulation of the AR)", "setting": "[9]", "result": "did not act as AR agonists or antagonists"}, {"measurement": "androgen receptor antagonism", "setting": "[9]", "result": "lack of androgen receptor antagonism"}]}, {"smiles": "COc1ccc2c(c1)c(C)c(CCC(=O)NS(C)(=O)=O)n2C(=O)c1ccc(Cl)cc1", "note": "[drawing 38]", "values": [{"measurement": "IC50", "setting": "[1]", "result": 0.34, "unit": "µM"}, {"measurement": "IC50", "setting": "[3]", "result": 100, "unit": "µM"}, {"measurement": "IC50", "setting": "[4]", "result": 93, "unit": "µM"}]}, {"smiles": "COc1ccc2c(c1)c(CC(=O)O)c(C)n2C(=O)c1ccc(CCl)cc1", "values": [{"measurement": "IC50", "setting": "[1]", "result": 0.12, "unit": "µM"}, {"measurement": "IC50", "setting": "[3]", "result": 100, "unit": "µM"}, {"measurement": "IC50", "setting": "[4]", "result": 40.7, "unit": "µM"}]}, {"smiles": "COc1ccc2c(c1)c(CC(=O)O)c(C)n2C(=O)c1ccc(C(F)(F)F)cc1", "values": [{"measurement": "IC50", "setting": "[4]", "result": 35.7, "unit": "µM"}]}, {"smiles": "COc1ccc2c(c1)c(CC(=O)NS(=O)(=O)C(F)(F)F)c(C)n2C(=O)c1ccc(Cl)cc1", "values": [{"measurement": "IC50", "setting": "[1]", "result": 0.74, "unit": "µM"}, {"measurement": "fold selectivity for AKR1C3 over AKR1C4", "setting": "[2]; number in parenthesis", "result": "> 135", "unit": "fold"}, {"measurement": "fold selectivity for AKR1C3 over AKR1C1", "setting": "[3]; number in parenthesis", "result": "> 135", "unit": "fold"}, {"measurement": "IC50", "setting": "[4]", "result": 81, "unit": "µM"}, {"measurement": "fold selectivity for AKR1C3 over AKR1C2", "setting": "[4]; number in parenthesis, ratio of IC50 values", "result": 108, "unit": "fold"}]}]}
